Assay in all cases: DTP human tumour cell line panel, 48 h
In assay [1] the test system is SK-OV-3.
Assay [2] deals with UO-31.
Assay [3] has as its system EKVX.
The test system of assay [4] is T47D.
The test system of assay [5] is HCC 2998.
Assay [6] concerns PC-3.
Assay [7] relates to ACHN.
The test system of assay [8] is UACC-62.
The subject of assay [9] is BT-549.
In assay [10] the test system is OVCAR-4.
For assay [11], the system named is RPMI-8226.
Assay [12] relates to SF-268.
For assay [13], the system named is COLO 205.
The subject of assay [14] is MDA-N.
Assay [15] relates to U-251.
Assay [16] deals with LOX IMVI.
The test system of assay [17] is A549.
Assay [18] deals with NCI/ADR-RES.
Assay [19] deals with DU-145.

The source of these data is ChEMBL document CHEMBL1201862, “PubChem BioAssay data set” (2004).

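The compound was tested at five concentrations on cells cultured in 96-well plates, with a 48-hour exposure period. Here, GI50 denotes the concentration required for 50% inhibition of growth.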 The source made the active and inactive calls. Rule as the data show it: active = GI50 up to about 1.1 µM and inactive = higher. A value given as a limit tells only on which side of the number the result lay.

On to `CSc1ccc(/C=C2\N=C(c3ccccc3)N(/N=C/c3cc4cc(C)ccc4nc3Cl)C2=O)cc1`, for which the GI50 (in general, the concentration giving 50% growth inhibition) in assay [1] was 24 µM (inactive); in assay [2], 15 µM (inactive); in [3], 32.4 µM (inactive); in [4], 22.9 µM (inactive); in assay [5], 16 µM (inactive); in assay [6], 16.9 µM (inactive). Besides, the GI50 in [7] was 16.3 µM (inactive); in [8], 15.6 µM (inactive); in [9], 22.8 µM (inactive); in assay [10] it was 17.1 µM (inactive); in assay [11], 27.6 µM (inactive); in [12], 19.1 µM (inactive). Further, the GI50 in [13] was 16.7 µM (inactive); in [14], 14.4 µM (inactive); in assay [15] it was 20 µM (inactive); in assay [16] it was 18.6 µM (inactive); in assay [17], 19.5 µM (inactive); in [18], 19.1 µM (inactive). Besides, the GI50 in [19] is 17.8 µM (inactive).
In the case of `CN1CCC(n2[nH]c(-c3ccccc3)c(Cc3ccccc3)c2=O)CC1` [BENZPIPERYLON], the GI50 in [1] was > 100 µM (inactive); in assay [2] it was 88.9 µM (inactive); in [3], > 100 µM (inactive); in assay [4] it was > 100 µM (inactive); in assay [5] it was > 100 µM (inactive); in [6] it was > 100 µM (inactive). Moreover, the GI50 was > 100 µM (inactive) in assay [7]; > 100 µM (inactive) in assay [8]; > 100 µM (inactive) in assay [9]; > 100 µM (inactive) in assay [10]; 46.8 µM (inactive) in [11]; > 100 µM (inactive) in [12]. Moreover, the GI50 in [13], in assay [14], in assay [15], in assay [16], in [17] and in [18] was > 100 µM (inactive) each time. For the same molecule, the GI50 in [19] is 97.3 µM (inactive).
As for `NNC(=O)Nc1nc2ccc(NN)cc2[nH]1`, the GI50 in [1] is 40.2 µM (inactive); in assay [2], 60.5 µM (inactive); in assay [3], 65.5 µM (inactive); in [4], 26.4 µM (inactive); in assay [5], 18.5 µM (inactive); in [6], 34.4 µM (inactive). For the same molecule, the GI50 in assay [7] is 29 µM (inactive); in [8] it was 21.1 µM (inactive); in assay [9], 24 µM (inactive); in assay [10] it was 34.3 µM (inactive); in assay [11] it was 7 µM (inactive); in [12], 37.2 µM (inactive). Moreover, the GI50 in [13] is 16.5 µM (inactive); in assay [14], 28.2 µM (inactive); in assay [15] it was 37 µM (inactive); in assay [16] it was 43.1 µM (inactive); in assay [17], 74 µM (inactive); in [18] it was 47.8 µM (inactive). Also, the GI50 in [19] was 97.7 µM (inactive).
For the molecule `CCN1CCC(O)(/C=C/c2ccc(Cl)c(Cl)c2)C(C(=O)/C=C/c2ccc(Cl)c(Cl)c2)C1` (stereo not given), the GI50 in [1] was 1.72 µM (inactive); in assay [2], 0.995 µM (active); in [3], 0.731 µM (active); in assay [4], 0.966 µM (active); in [5] it was 1.71 µM (inactive); in [6], 0.329 µM (active). Further, the GI50 in assay [7] was 1.06 µM (active); in assay [8], 0.973 µM (active); in [9], 0.733 µM (active); in [10], 0.632 µM (active); in assay [11] it was 0.136 µM (active); in assay [12] it was 1.06 µM (active). Besides, the GI50 is 0.705 µM (active) in assay [13]; 1.55 µM (inactive) in [14]; 2.11 µM (inactive) in assay [15]; 0.794 µM (active) in assay [16]; 0.673 µM (active) in [17]; 0.843 µM (active) in assay [18]. Moreover, the GI50 in [19] was 1.13 µM (inactive).
`O=C1CCC(=O)N1n1c(Cc2ccccc2)n[nH]c1=O`: the GI50 in assay [1], in assay [2], in assay [3], in [4], in assay [5] and in assay [6] was > 100 µM (inactive) each time. The GI50 in assay [7], in [8], in assay [9], in assay [10], in assay [11] and in assay [12] was > 100 µM (inactive) each time. Besides, the GI50 in assay [13], in assay [14], in assay [15], in assay [16], in [17] and in assay [18] was > 100 µM (inactive) in each case. Besides, the GI50 in assay [19] was > 100 µM (inactive).
For `COC(=O)C1OC(O[C@H]2CC[C@]3(C)[C@H]4CC=C5[C@@H]6CC(C)(C)CC[C@]6(C(=O)OC6OCC(O)C(O)C6OC6OC(C)C(OC7OCC(O)C(O)C7O)C(OC7OCC(O)(CO)C7O)C6O)[C@H](O)C[C@@]5(C)[C@]4(C)CC[C@H]3C2(C)C)C(O)C(O)C1O` (stereo not given in full), the GI50 in assay [1] was 12.2 µM (inactive); in [2], 1.81 µM (inactive); in [3], 2.77 µM (inactive); in assay [4] it was 3.86 µM (inactive); in assay [5] it was 2.29 µM (inactive); in assay [6], 3.85 µM (inactive). Moreover, the GI50 was 3.31 µM (inactive) in [7]; 2.51 µM (inactive) in assay [8]; 2.64 µM (inactive) in [9]; 4.98 µM (inactive) in assay [10]; 3.86 µM (inactive) in [11]; 10 µM (inactive) in [12]. Also, the GI50 was 1.57 µM (inactive) in assay [13]; 2.01 µM (inactive) in assay [14]; 6.5 µM (inactive) in assay [15]; 7.64 µM (inactive) in assay [16]; 3.52 µM (inactive) in assay [17]; 4.91 µM (inactive) in [18]. For the same molecule, the GI50 in [19] is 8.53 µM (inactive).
In the case of `N#CC(NCc1cccc(CNC(C#N)c2ccccc2)c1)c1ccccc1` (stereo not given), the GI50 in [1] was > 100 µM (inactive); in [2] it was 94.4 µM (inactive); in [3], 60 µM (inactive); in [4] it was 48.6 µM (inactive); in assay [5] it was 14.9 µM (inactive); in [6] it was 42.9 µM (inactive). The GI50 was > 100 µM (inactive) in assay [7]; 65.2 µM (inactive) in [8]; 24.7 µM (inactive) in assay [9]; 56 µM (inactive) in assay [10]; 21.1 µM (inactive) in assay [11]; 52.1 µM (inactive) in [12]. Further, the GI50 in assay [13] is 19.5 µM (inactive); in assay [14], 37.2 µM (inactive); in assay [15] it was 31.1 µM (inactive); in assay [16] it was 15 µM (inactive); in [17], 28.7 µM (inactive); in assay [18], > 100 µM (inactive). In addition, in [19], the GI50 is > 100 µM (inactive).
As for `CC(C)=CCN1c2ccccc2[C@@]2(CC=C(C)C)CCN(C)[C@@H]12` [(+)-DEBROMOFLUSTRAMINE B], the GI50 in [1] was 24.4 µM (inactive); in [2] it was 14.8 µM (inactive); in assay [3], 21.2 µM (inactive); in assay [4] it was 20.7 µM (inactive); in assay [5], 13.7 µM (inactive); in assay [6] it was 27 µM (inactive). The GI50 was 32.5 µM (inactive) in [7]; 15.7 µM (inactive) in [8]; 21.9 µM (inactive) in assay [9]; 35.6 µM (inactive) in assay [10]; 21.6 µM (inactive) in assay [11]; 46.3 µM (inactive) in assay [12]. The GI50 in assay [13] is 13.9 µM (inactive); in assay [14], 26.5 µM (inactive); in assay [15] it was 18.2 µM (inactive); in [16], 15.1 µM (inactive); in [17], 36.1 µM (inactive); in [18], 18.3 µM (inactive). The GI50 in [19] is 45.2 µM (inactive).
For `NCCN(CCN)/[N+]([O-])=N/O`, the GI50 in [1], in [2], in [3], in assay [4], in [5] and in assay [6] was > 100 µM (inactive) throughout. For the same molecule, the GI50 in [7], in assay [8], in assay [9], in assay [10], in assay [11] and in assay [12] was > 100 µM (inactive) throughout. Moreover, the GI50 in assay [13] is > 100 µM (inactive); in assay [14], > 100 µM (inactive); in [15], > 100 µM (inactive); in [16], > 100 µM (inactive); in assay [17], > 100 µM (inactive); in [18], 82.8 µM (inactive). The GI50 in [19] is > 100 µM (inactive).
Regarding `COC1=CC(=O)c2c(c(-c3csc(C)n3)cn2C)C1=O`, the GI50 was 57.3 µM (inactive) in assay [1]; 27 µM (inactive) in assay [2]; 20 µM (inactive) in assay [3]; 26.5 µM (inactive) in assay [4]; 10.9 µM (inactive) in assay [5]; 20.9 µM (inactive) in [6]. The GI50 in assay [7] is 25.8 µM (inactive); in assay [8], 12.1 µM (inactive); in assay [9], 22.8 µM (inactive); in [10], 58.2 µM (inactive); in assay [11], 5.24 µM (inactive); in assay [12] it was 27.2 µM (inactive). In addition, the GI50 in assay [13] is 19.8 µM (inactive); in assay [14], 14.8 µM (inactive); in assay [15], 69.7 µM (inactive); in assay [16], 4.81 µM (inactive); in assay [17], 2.15 µM (inactive); in [18], 22 µM (inactive). Besides, the GI50 in assay [19] was 4.85 µM (inactive).
